Assay results taken from PubChem BioAssay AID1963829 (Molecular Pharmacology Branch, DTP, NCI, 2024).

System: 935938-334-R-J1-PDC complex spheroid viability
Test: Anticancer human tumor 935938-334-R-J1-PDC patient-derived small intestine adenocarcinoma cell line growth inhibition [POLQ]
Details: for IC50: curve of first compound; for viability, T/C: stronger effect = lower value
Method in brief: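 Growth inhibition in 3D: complex spheroids (tumor PDC, HUVEC, MSC) treated with POLQ inhibitor combinations; where Cmax unknown, highest tested concentration 10 microM, except SN-38 at 1 microM.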
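Note: spheroids exposed to drugs for seven days before viability read.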
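Throughout, for viability, T/C: 100% = DMSO vehicle control wells.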

Work on C=CCn1c(=O)c2cnc(Nc3ccc(N4CCN(C)CC4)cc3)nc2n1-c1cccc(C(C)(C)O)n1 + Cc1cccc(N(C)C(=O)C2C(O)CCN2c2nc(C)cc(C(F)(F)F)c2C#N)c1 yielded an IC50 (second compound 0.0316 µM) of 591 nM, an IC50 (second compound 0.1 µM) of 500 nM and an IC50 (second compound 0.316 µM) of 513 nM. It also gave an IC50 (second compound 1 µM) of 669 nM, an IC50 (second compound 3.16 µM) of 595 nM and an IC50 (second compound 10 µM) of 516 nM. It also gave a viability, T/C (second compound 0.0316 µM, first compound 0.00316 µM) of 86.3%, a viability, T/C (second compound 0.0316 µM, first compound 0.01 µM) of 67.3% and a viability, T/C (second compound 0.0316 µM, first compound 0.0316 µM) of 80%. For the same compound, the viability, T/C (second compound 0.0316 µM, first compound 0.1 µM) was 85.8%, the viability, T/C (second compound 0.0316 µM, first compound 0.316 µM) was 77.8% and the viability, T/C (second compound 0.0316 µM, first compound 1 µM) was 26.6%. For the same compound, the viability, T/C (second compound 0.1 µM, first compound 0.00316 µM) was 93%, the viability, T/C (second compound 0.1 µM, first compound 0.01 µM) was 87.5% and the viability, T/C (second compound 0.1 µM, first compound 0.0316 µM) was 97%. For the same compound, the viability, T/C (second compound 0.1 µM, first compound 0.1 µM) was 107%, the viability, T/C (second compound 0.1 µM, first compound 0.316 µM) was 66% and the viability, T/C (second compound 0.1 µM, first compound 1 µM) was 25.7%. For the same compound, the viability, T/C (second compound 0.316 µM, first compound 0.00316 µM) was 90.4%, the viability, T/C (second compound 0.316 µM, first compound 0.01 µM) was 110% and the viability, T/C (second compound 0.316 µM, first compound 0.0316 µM) was 83.6%. The viability, T/C (second compound 0.316 µM, first compound 0.1 µM) was 95.9%, the viability, T/C (second compound 0.316 µM, first compound 0.316 µM) was 67.8% and the viability, T/C (second compound 0.316 µM, first compound 1 µM) was 25.5%. It also gave a viability, T/C (second compound 1 µM, first compound 0.00316 µM) of 94.8%, a viability, T/C (second compound 1 µM, first compound 0.01 µM) of 98.6% and a viability, T/C (second compound 1 µM, first compound 0.0316 µM) of 106%. For the same compound, the viability, T/C (second compound 1 µM, first compound 0.1 µM) was 104%, the viability, T/C (second compound 1 µM, first compound 0.316 µM) was 92.1% and the viability, T/C (second compound 1 µM, first compound 1 µM) was 27%. For the same compound, the viability, T/C (second compound 3.16 µM, first compound 0.00316 µM) was 69.9%, the viability, T/C (second compound 3.16 µM, first compound 0.01 µM) was 112% and the viability, T/C (second compound 3.16 µM, first compound 0.0316 µM) was 74.9%. It also gave a viability, T/C (second compound 3.16 µM, first compound 0.1 µM) of 87.7%, a viability, T/C (second compound 3.16 µM, first compound 0.316 µM) of 78.4% and a viability, T/C (second compound 3.16 µM, first compound 1 µM) of 26.2%. The viability, T/C (second compound 10 µM, first compound 0.00316 µM) was 103%, the viability, T/C (second compound 10 µM, first compound 0.01 µM) was 101% and the viability, T/C (second compound 10 µM, first compound 0.0316 µM) was 88.7%. The viability, T/C (second compound 10 µM, first compound 0.1 µM) was 96.4%, the viability, T/C (second compound 10 µM, first compound 0.316 µM) was 72.2% and the viability, T/C (second compound 10 µM, first compound 1 µM) was 19.6%.
